{"source": "paper PMC9175088", "about": "(Drug Metabolism Letters, 2021)", "key": {"[1]": {"assay": "Metabolism of enflicoxib and E-6132 in cryopreserved hepatocytes", "conditions": "male, Wistar, rat"}, "[2]": {"assay": "Metabolism of enflicoxib and E-6132 in cryopreserved hepatocytes"}, "[3]": {"conditions": "enantiomers of enflicoxib; cited from earlier work"}, "[4]": {"assay": "Secondary phase I metabolism in liver microsomes, unlabeled substrates", "format": "in vitro ADME", "conditions": "rat liver microsomes, positive control 10 µM; experiments with M8 as substrate"}, "[5]": {"assay": "Enflicoxib metabolism in intestinal microsomes"}, "[6]": {"assay": "Enflicoxib metabolism in intestinal microsomes", "remark": "listed apart in the source"}, "[7]": {"conditions": "dog hepatocytes, positive control 10 µM"}}}
{"smiles": "Cc1cc(=O)oc2cc(O)ccc12", "note": "[7-hydroxy-4-methylcoumarin]", "values": [{"measurement": "half-life at 10 µM", "setting": "[1]", "value": "< 5.9", "unit": "min"}, {"measurement": "K", "setting": "[2]; [7]", "value": -0.0658}, {"measurement": "half-life at 10 µM", "setting": "[2]; male, beagle, dog, cryopreserved hepatocytes", "value": 10.5, "unit": "min"}]}
{"smiles": "NS(=O)(=O)c1ccc(N2N=C(C(F)(F)F)C[C@@H]2c2ccc(F)cc2F)cc1", "note": "[Metabolite E-6231, (R)-(+)-enflicoxib]", "values": [{"measurement": "Pharmacological activity of enantiomer", "setting": "[3]", "value": "negligible"}]}
{"smiles": "NS(=O)(=O)c1ccc(N2N=C(C(F)(F)F)C[C@H]2c2ccc(F)cc2F)cc1", "note": "[Metabolite E-6232, (S)-(-)-enflicoxib]", "values": [{"measurement": "Pharmacological activity of enantiomer", "setting": "[3]", "value": "active enantiomer"}]}
{"smiles": "C[C@]12CC[C@H]3[C@@H](CCC4=CC(=O)CC[C@@]43C)[C@@H]1CC[C@@H]2O", "note": "[Testosterone, testosterone]", "values": [{"measurement": "K", "setting": "[4]", "value": -0.3314}, {"measurement": "half-life at 10 µM", "setting": "[5]; male, Sprague-Dawley, rat, intestinal microsomes, pH 7.4", "value": 133, "unit": "min"}, {"measurement": "K", "setting": "[5]; rat intestinal microsomes, positive control 10 µM", "value": -0.0052}, {"measurement": "K", "setting": "[6]; dog intestinal microsomes, positive control 10 µM", "value": -0.0195}, {"measurement": "half-life at 10 µM", "setting": "[6]; male, beagle, dog, intestinal microsomes, pH 7.4", "value": 35.5, "unit": "min"}, {"measurement": "K", "setting": "[2]; [7]", "value": -0.0914}, {"measurement": "t1/2", "setting": "[2]; [7]", "value": 7.6, "unit": "min"}]}
